These results are taken from ChEMBL document CHEMBL1201862, “PubChem BioAssay data set” (2004).

Some test systems named below: IGROV-1; OVCAR-8; SW-620; UACC-257; SF-539; NCI-H460; UO-31; RPMI-8226; HL-60; SK-MEL-5; COLO 205; SR; SK-MEL-28; NCI-H226; NCI-H23; CAKI-1; HCT-15; SNB-75; CCRF-CEM; MCF7.
What all share (experiment): NCI-60 cell line screen, 48 h

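All cell lines were grown in 96-well plates and treated with compound for 48 hours. GI50: concentration for 50% inhibition of growth.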 Activity calls are given as the source filed them. No stated cut-off is given here; in the data, active = GI50 up to about 1.1 µM and inactive = higher.

`CCC(=O)C(C(=O)CC)c1c(OC(=O)c2ccccc2)ccc(O)c1C(=O)OC`: the GI50 in the experiment with IGROV-1, with OVCAR-8, with SW-620, with UACC-257, in the experiment with SF-539 and with NCI-H460 was > 100 µM (inactive) in each case. Moreover, the GI50 is > 100 µM (inactive) with UO-31; > 100 µM (inactive) with RPMI-8226; > 100 µM (inactive) in the experiment on HL-60; > 100 µM (inactive) in the experiment with SK-MEL-5; > 100 µM (inactive) in the experiment on COLO 205; 89.9 µM (inactive) with SR. For the same compound, the GI50 was > 100 µM (inactive) with SK-MEL-28; > 100 µM (inactive) in the experiment on NCI-H226; > 100 µM (inactive) with NCI-H23; > 100 µM (inactive) in the experiment with CAKI-1; > 100 µM with HCT-15; 90.8 µM (inactive) in the experiment with SNB-75. For the same compound, the GI50 in the experiment with CCRF-CEM was > 100 µM (inactive).

Turning to `OCc1c2c(cc3c1CC1(C3)Cc3cc4c(c(CO)c3C1)CCC4)CCC2`, the GI50 with IGROV-1 is 15.5 µM (inactive); with OVCAR-8, 18.6 µM (inactive); in the experiment with UACC-257 it was 11.6 µM (inactive); with SF-539 it was 17.4 µM (inactive); with UO-31 it was 1.67 µM (inactive); in the experiment on RPMI-8226, 21.1 µM (inactive). For the same compound, the GI50 in the experiment with HL-60 was 5.73 µM (inactive); with SK-MEL-5 it was 5.81 µM (inactive); in the experiment on COLO 205, 24.3 µM (inactive); with NCI-H226, 11.6 µM (inactive); in the experiment with NCI-H23 it was 13.1 µM (inactive); in the experiment with HCT-15, 18 µM. Besides, the results for the GI50 in the experiment with MCF7 and in the experiment on CCRF-CEM were 23.5 µM (inactive) and 8 µM (inactive), respectively.

Turning to `N#Cc1cc(Sc2ccc(N)c(C#N)c2)ccc1N`, the GI50 with IGROV-1 is 25.1 µM (inactive); in the experiment on OVCAR-8, 20.4 µM (inactive); in the experiment with SW-620, 13.3 µM (inactive); in the experiment with UACC-257 it was 26.9 µM (inactive); in the experiment with SF-539 it was 11.1 µM (inactive); in the experiment with NCI-H460, 15.5 µM (inactive). Moreover, the GI50 is 17.7 µM (inactive) in the experiment on UO-31; 12.8 µM (inactive) in the experiment on RPMI-8226; 1.87 µM (inactive) with HL-60; 15.3 µM (inactive) in the experiment with SK-MEL-5; 8.59 µM (inactive) in the experiment with COLO 205; 55.2 µM (inactive) in the experiment on SK-MEL-28. Further, the GI50 was 19.6 µM (inactive) with NCI-H226, 9.51 µM in the experiment with HCT-15, 15.8 µM (inactive) in the experiment with MCF7 and 9.64 µM (inactive) in the experiment with CCRF-CEM.

On to `CC1OC(OCC2COC(O)(Oc3c(-c4ccc(O)c(O)c4)oc4cc(O)cc(O)c4c3=O)C(O)C2O)C(O)C(O)C1O` (centres undefined), for which the GI50 in the experiment with IGROV-1, with OVCAR-8, in the experiment on SW-620, in the experiment on UACC-257, in the experiment on SF-539 and in the experiment with NCI-H460 was > 100 µM (inactive) throughout. Further, the GI50 with UO-31, with RPMI-8226, in the experiment with HL-60, in the experiment on SK-MEL-5, in the experiment with COLO 205 and in the experiment with SR was > 100 µM (inactive) in each case. The GI50 was > 100 µM (inactive) with SK-MEL-28; > 100 µM (inactive) with NCI-H226; > 100 µM (inactive) in the experiment on NCI-H23; > 100 µM (inactive) in the experiment with CAKI-1; > 100 µM with HCT-15; > 100 µM (inactive) in the experiment with SNB-75. For the same compound, the GI50 with CCRF-CEM was > 100 µM (inactive).

With `COc1cc([N+](=O)[O-])ccc1NC(=O)c1cccc([N+](=O)[O-])c1O`, the GI50 with IGROV-1 was 14.1 µM (inactive); in the experiment with OVCAR-8 it was 29 µM (inactive); in the experiment on SW-620 it was 30.8 µM (inactive); in the experiment with UACC-257 it was 17.8 µM (inactive); with SF-539, 23.1 µM (inactive); in the experiment with NCI-H460, 27.7 µM (inactive). Moreover, the GI50 is 16.2 µM (inactive) in the experiment on UO-31; 10.3 µM (inactive) in the experiment with RPMI-8226; 19.9 µM (inactive) in the experiment on HL-60; 6.46 µM (inactive) in the experiment with SK-MEL-5; 16 µM (inactive) with COLO 205; 17.8 µM (inactive) in the experiment with SR. In addition, the GI50 was 21.6 µM (inactive) in the experiment with SK-MEL-28; 38.7 µM (inactive) in the experiment on NCI-H226; 20.4 µM (inactive) with NCI-H23; 17 µM (inactive) in the experiment on CAKI-1; 18.1 µM with HCT-15; 21.1 µM (inactive) with SNB-75. Besides, the GI50 in the experiment with CCRF-CEM is 23.2 µM (inactive).

Turning to `OCCNCO`, the GI50 in the experiment on IGROV-1, in the experiment with OVCAR-8, in the experiment on SW-620, with UACC-257, in the experiment on SF-539 and in the experiment with NCI-H460 was > 100 µM (inactive) throughout. Also, the GI50 was > 100 µM (inactive) with UO-31; > 100 µM (inactive) with RPMI-8226; 46.8 µM (inactive) with HL-60; > 100 µM (inactive) in the experiment on SK-MEL-5; > 100 µM (inactive) in the experiment with COLO 205; > 100 µM (inactive) in the experiment with SR. In addition, the GI50 in the experiment with SK-MEL-28 is > 100 µM (inactive); in the experiment on NCI-H226 it was > 100 µM (inactive); in the experiment on NCI-H23, > 100 µM (inactive); with CAKI-1 it was > 100 µM (inactive); in the experiment on HCT-15 it was > 100 µM; with SNB-75 it was > 100 µM (inactive). Further, the GI50 with CCRF-CEM is > 100 µM (inactive).

Regarding `COc1ccc(C2ON(c3ccccn3)CC=C2C)cc1` (centres undefined), the GI50 in the experiment on IGROV-1, in the experiment on OVCAR-8, in the experiment with SW-620, with UACC-257, in the experiment on SF-539 and in the experiment on NCI-H460 was > 100 µM (inactive) in each case. Also, the GI50 in the experiment on UO-31 is 34.5 µM (inactive); with RPMI-8226, 60.1 µM (inactive); in the experiment with HL-60 it was > 100 µM (inactive); in the experiment with SK-MEL-5, > 100 µM (inactive); in the experiment with COLO 205 it was > 100 µM (inactive); in the experiment with SR, 58.9 µM (inactive). Moreover, the GI50 with SK-MEL-28 was > 100 µM (inactive); in the experiment on NCI-H226 it was > 100 µM (inactive); in the experiment on NCI-H23 it was 78.3 µM (inactive); in the experiment on CAKI-1, > 100 µM (inactive); in the experiment with HCT-15, > 100 µM; in the experiment with SNB-75 it was > 100 µM (inactive). For the same compound, in the experiment with CCRF-CEM, the GI50 is > 100 µM (inactive).

In the case of `C(=C\C(Sc1ccccc1)c1ccccc1)/NNC1=NN=C(c2ccccc2)C(c2ccccc2)N1` (centres undefined), the GI50 is 68.5 µM (inactive) in the experiment on IGROV-1; 34.6 µM (inactive) in the experiment with OVCAR-8; 21.8 µM (inactive) in the experiment with SW-620; > 100 µM (inactive) in the experiment with UACC-257; 65.3 µM (inactive) in the experiment with SF-539; 30.3 µM (inactive) in the experiment on NCI-H460. Further, the GI50 was 18.8 µM (inactive) in the experiment with UO-31; 16.4 µM (inactive) in the experiment with RPMI-8226; 15.2 µM (inactive) with HL-60; 45.9 µM (inactive) in the experiment on SK-MEL-5; 32.2 µM (inactive) in the experiment on COLO 205; 25.9 µM (inactive) with SR. Moreover, the GI50 was > 100 µM (inactive) in the experiment on SK-MEL-28; 64.4 µM (inactive) in the experiment with NCI-H226; 31.2 µM (inactive) with NCI-H23; 24.8 µM (inactive) with CAKI-1; 23.5 µM in the experiment on HCT-15; > 100 µM (inactive) in the experiment on SNB-75. Moreover, in the experiment on CCRF-CEM, the GI50 is 10.2 µM (inactive).

As to `CO[C@H]1O[C@@H]2OC3(C)CCC4[C@H](C)CCC([C@H]1C)[C@]42OO3` (some centres undefined), the GI50 in the experiment on IGROV-1 is > 100 µM (inactive); in the experiment on OVCAR-8 it was 53.6 µM (inactive); in the experiment on SW-620, > 100 µM (inactive); in the experiment on UACC-257, > 100 µM (inactive); in the experiment with SF-539 it was > 100 µM (inactive); in the experiment with NCI-H460, > 100 µM (inactive). Also, the GI50 with UO-31 was 24.8 µM (inactive); with RPMI-8226, 12.1 µM (inactive); in the experiment with HL-60 it was 1.32 µM (inactive); with SK-MEL-5, 38 µM (inactive); in the experiment with COLO 205, 28.2 µM (inactive); in the experiment on SR it was 56.2 µM (inactive). Further, the GI50 is > 100 µM (inactive) with SK-MEL-28; > 100 µM (inactive) with NCI-H226; > 100 µM (inactive) with NCI-H23; > 100 µM (inactive) in the experiment on CAKI-1; > 100 µM in the experiment with HCT-15; 85.9 µM (inactive) in the experiment with SNB-75. The GI50 with CCRF-CEM was 19.1 µM (inactive).

For `CNc1ncnc2c1nc(NC1CCCC1)n2C1OC(CO)C(O)C1O` (centres undefined), the GI50 in the experiment on OVCAR-8, with SW-620, in the experiment on SF-539, with NCI-H460, with UO-31 and in the experiment with SK-MEL-5 was > 100 µM (inactive) throughout. Also, the GI50 in the experiment with COLO 205 is > 100 µM (inactive); in the experiment on SK-MEL-28 it was > 100 µM (inactive); with NCI-H23, > 100 µM (inactive); in the experiment on CAKI-1, > 100 µM (inactive); in the experiment on HCT-15 it was > 100 µM; with MCF7 it was > 100 µM (inactive).

In the case of `c1ccc(COc2ccc3[nH]c4c5c6ccccc6nc-5c[nH]c4c3c2)cc1`, the GI50 in the experiment on IGROV-1 is 13.8 µM (inactive); in the experiment on OVCAR-8, 17.5 µM (inactive); in the experiment with SW-620 it was 17.3 µM (inactive); with UACC-257 it was 18 µM (inactive); in the experiment with SF-539 it was 15.7 µM (inactive); with NCI-H460 it was 18.6 µM (inactive). For the same compound, the GI50 in the experiment on UO-31 is 18.7 µM (inactive); with RPMI-8226, 2.97 µM (inactive); with HL-60 it was 2.19 µM (inactive); with SK-MEL-5, 15.7 µM (inactive); with COLO 205 it was 19 µM (inactive); with SR it was 8.95 µM (inactive). The GI50 with SK-MEL-28 is 17.2 µM (inactive); in the experiment on NCI-H226, 15.4 µM (inactive); with NCI-H23, 18.3 µM (inactive); in the experiment with CAKI-1, 22 µM (inactive); with HCT-15, 4.3 µM; with SNB-75, 12.7 µM (inactive). Moreover, the GI50 in the experiment with CCRF-CEM was 11.4 µM (inactive).
